In patent publication US5631401A, “Inhibitors of protein farnesyltransferase and squalene synthase” (Abbott Laboratories, priority 1995, dated 1997) one finds inhibition data, which are given here for 18 molecules.

Assay [1] deals with T1, Rat liver microsomal squalene synthase (Rattus norvegicus, UniProt Q02769).
T1 construct: Rat liver microsomes, the source of enzyme, were prepared; from tissue; host or cells: rat liver microsomes
T1 sequence (Q02769 1-416): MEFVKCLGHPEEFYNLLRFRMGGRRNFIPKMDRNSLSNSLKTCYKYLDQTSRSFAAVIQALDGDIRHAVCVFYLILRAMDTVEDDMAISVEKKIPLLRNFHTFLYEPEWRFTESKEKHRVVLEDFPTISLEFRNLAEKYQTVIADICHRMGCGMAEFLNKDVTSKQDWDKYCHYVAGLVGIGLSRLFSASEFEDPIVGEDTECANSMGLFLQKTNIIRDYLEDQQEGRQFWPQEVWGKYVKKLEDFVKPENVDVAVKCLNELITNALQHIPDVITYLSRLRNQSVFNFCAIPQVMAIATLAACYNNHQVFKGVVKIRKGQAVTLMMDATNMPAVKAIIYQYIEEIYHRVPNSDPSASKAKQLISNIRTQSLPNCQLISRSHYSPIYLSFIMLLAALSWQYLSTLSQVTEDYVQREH
The assay is described as follows: In vitro inhibition of squalene synthase (rat liver microsomes, 3H-farnesyl diphosphate). The assay is classed as biochemical. Particulars: for inhibition at 1 µM: compared to controls with no test compound; for inhibition at 10 µM: 10 μM (footnote *), read-out: % Inhibition at 10 μM (squalene synthase, values marked *). On the procedure:
In vitro inhibition of squalene synthase may be measured by the following procedure.
Rat liver microsomal squalene synthase activity was measured using radioactive farnesyl diphosphate as a substrate and quantitating squalene synthesis by counting the radioactive squalene formed.
Rat liver microsomes, the source of enzyme, were prepared according to the method of Gillies, P. J., et al., Exp. Molec. Pathol. 44: 329-339 (1986), a modification of the procedure of Erickson, S. K., and Cooper, A. D., Metabolism, 29: 991-996 (1980). Approximately 30 μg of microsomal protein was incubated for 10 minutes at 37° C. with 11 μM of ^3 H-farnesyl diphosphate, 49 mCi/mmol, and test compound in the presence of squalene (2 μL), Mg^++, KF, reduced B-nicotinamide adenine dinucleotide phosphate, dithiothreitol, and K2 PO4, pH 7.35, in a total volume of 200 μL. Oxygen was excluded from the closed incubation tube by degassing with nitrogen. The reaction was terminated by the addition of ethanolic KOH and after degassing with N2, the microsomal membranes were solubilized by heating at 60° C. for 30 minutes. The squalene was extracted into hexane, and the squalene was separated from all other radioactive molecules by passage over an activated alumina column. The solution was collected in scintillation vials, evaporated to dryness, liquid scintillation fluid was added, and the radioactivity was determined in a liquid scintillation counter. […]
(In general: Liver microsomes are vesicles of endoplasmic reticulum, rich in cytochrome P450 enzymes.)

For assay [2], the target named is T2, Rat brain protein farnesyltransferase (Rattus norvegicus, UniProt Q02293+Q04631).
T2 construct: The enzyme was purified according to Reiss, Y., et al., Cell, 62: 81-88 (1990), utilizing steps one through three; from tissue; host or cells: rat brain
Briefly: In vitro inhibition of protein farnesyltransferase (biotin-lamin substrate, scintillation proximity assay). The class given is biochemical. As to conditions: for inhibition at 1 µM: 1 μM (footnote *), read-out: % Inhibition at 1 μM (protein farnesyltransferase, values marked *); for inhibition at 10 µM: compared to uninhibited control. Here is the method:
In vitro inhibition of protein farnesyltransferase may be measured by the following procedure. (Procedures for determination of the inhibition of farnesylation of the oncogene protein Ras are described by Goldstein, et al., J. Biol. Chem., 266: 15575-15578 (1991) and by Singh in U.S. Pat. No. 5,245,061 both of which are incorporated herein by reference.)
Rat brain protein farnesyltransferase activity was measured using the biotin-lamin substrate (which is known to undergo farnesylation in a manner analogous to Ras protein) and radioactive farnesyl diphosphate provided by Amersham Life Science in their commercial scintillation proximity assay kit for the determination of farnesyltransferase. The enzyme was purified according to Reiss, Y., et al., Cell, 62: 81-88 (1990), utilizing steps one through three. The specific activity of the enzyme was approximately 10 nmol substrate farnesylated/mg enzyme/hour. […]
(Scintillation proximity formats need no separation of bound from free tracer.)

The structures appear in SMILES notation.

What is called inhibition is the percentage by which the read-out fell short of the control.

Regarding `CCCN(Cc1ccc(Oc2ccccc2)cc1)C(=O)[C@H]1[C@H](C(=O)O)[C@H](C(=O)N(Cc2ccccc2)Cc2ccc(Oc3ccccc3)cc2)[C@H]1C(=O)O` (relative stereo) [Example 40, (1α,2β,3β,4α)-1-[N-Propyl-N-(4-phenoxybenzyl)aminocarbonyl]-3-[N-benzyl-N-(4-phenoxybenzyl)aminocarbonyl]cyclobutane-2,4-dicarboxylic acid], the figures for the inhibition at 1 µM in assay [1] and in assay [2] were 49% and 94%, respectively.

In the case of `CN(Cc1ccc(Oc2ccccc2)cc1)C(=O)[C@H]1[C@H](C(=O)O)[C@H](C(=O)N(C)Cc2ccc(Oc3ccccc3)cc2)[C@H]1C(=O)O` [Example 14, (1α,2β,3β,4α)-1,3-Di[N-methyl-N-(4-phenoxybenzyl)aminocarbonyl]cyclobutane-2,4-dicarboxylic acid], the inhibition at 1 µM in assay [1] stood at 47%. The molecule also registered an inhibition at 10 µM in assay [2] of 34%.

For the molecule `CN(Cc1ccc(OCc2ccccc2)cc1)C(=O)[C@H]1[C@H](C(=O)O)[C@H](C(=O)N(C)Cc2ccc(OCc3ccccc3)cc2)[C@H]1C(=O)O` [Example 15, (1α,2β,3β,4α)-1,3-Di[N-methyl-N-(4-benzyloxybenzyl)aminocarbonyl]cyclobutane-2,4-dicarboxylic acid], the inhibition at 10 µM in assay [1] was found to be 26%; in assay [2], 45%.

The molecule `O=C(O)[C@H]1[C@H](C(=O)N(Cc2ccccc2)Cc2ccc(Oc3ccccc3)cc2)[C@H](C(=O)O)[C@H]1C(=O)N(Cc1ccccc1)Cc1ccc(Oc2ccccc2)cc1` [Example 16, (1α,2β,3β,4α)-1,3-Di[N-benzyl-N-(4-phenoxybenzyl)aminocarbonyl]cyclobutane-2,4-dicarboxylic acid] yielded an inhibition at 1 µM in assay [1] of 25%. In addition, in assay [2], the inhibition at 10 µM was 98%.

In assay [1], `CCN(Cc1ccc(Oc2ccccc2)cc1)C(=O)[C@H]1[C@H](C(=O)O)[C@H](C(=O)N(CC)Cc2ccc(Oc3ccccc3)cc2)[C@H]1C(=O)O` [Example 17, (1α,2β,3β,4α)-1,3-Di(N-ethyl-N-(4-phenoxybenzyl)aminocarbonyl)cyclobutane-2,4-dicarboxylic acid] had an inhibition at 1 µM of 52%. For the same molecule, the inhibition at 10 µM in assay [2] amounted to 49%.

In the case of `CCCN(Cc1ccc(Oc2ccccc2)cc1)C(=O)[C@H]1[C@H](C(=O)O)[C@H](C(=O)N(CCC)Cc2ccc(Oc3ccccc3)cc2)[C@H]1C(=O)O` [Example 18, (1α,2β,3β,4α)-1,3-Di(N-propyl-N-(4-phenoxybenzyl)aminocarbonyl)cyclobutane-2,4-dicarboxylic acid], the figures for the inhibition at 10 µM in assay [1] and in assay [2] were 89% and 55%, respectively.

Take `CN(Cc1cccc(Oc2ccccc2)c1)C(=O)[C@H]1[C@H](C(=O)O)[C@H](C(=O)N(C)Cc2cccc(Oc3ccccc3)c2)[C@H]1C(=O)O` [Example 19, (1α,2β,3β,4α)-1,3-Di(N-methyl-N-(3-phenoxybenzyl)aminocarbonyl)cyclobutane-2,4-dicarboxylic acid]: the inhibition at 10 µM in assay [1] was 52%; in assay [2], 80%.

For `O=C(O)[C@H]1[C@H](C(=O)N(Cc2ccc(Oc3ccccc3)cc2)Cc2ccc(Oc3ccccc3)cc2)[C@H](C(=O)O)[C@H]1C(=O)N(Cc1ccc(Oc2ccccc2)cc1)Cc1ccc(Oc2ccccc2)cc1` [Example 20, (1α,2β,3β,4α)-1,3-Di(N,N-di(4-phenoxybenzyl)aminocarbonyl)cyclobutane-2,4-dicarboxylic acid], the inhibition at 10 µM in assay [1] came to 41%.

Consider `CN(Cc1ccc(Oc2ccc(F)cc2)cc1)C(=O)[C@H]1[C@H](C(=O)O)[C@H](C(=O)N(C)Cc2ccc(Oc3ccc(F)cc3)cc2)[C@H]1C(=O)O` [Example 21, (1α,2β,3β,4α)-1,3-Di(N-methyl-N-(4-(4-fluorophenoxy)benzyl)aminocarbonyl)cyclobutane-2,4-dicarboxylic acid], for which the inhibition at 10 µM in assay [1] was determined as 33%; in assay [2], 27%.

`CN(c1ccc(-c2ccccc2)cc1)C(=O)[C@H]1[C@H](C(=O)O)[C@H](C(=O)N(C)c2ccc(-c3ccccc3)cc2)[C@H]1C(=O)O` [Example 23, (1α,2β,3β,4α)-1,3-Di(N-methyl-N-biphenylaminocarbonyl)cyclobutane-2,4-dicarboxylic acid]: in assay [1], the inhibition at 10 µM turned out to be 25%.

Take `CCCN(C[C@H](C)CCCc1ccccc1)C(=O)[C@H]1[C@H](C(=O)O)[C@H](C(=O)N(CCC)C[C@H](C)CCCc2ccccc2)[C@H]1C(=O)O` [Example 82, (1α,2β,3β,4α)-1,3-Di [N-((2R)-2-methyl-5-phenylpentyl)-N-(n-propyl)aminocarbonyl]cyclobutane-2,4-dicarboxylic acid]: the inhibition at 1 µM in assay [2] worked out at 21%.

As to `CC(=O)OC(CCCN(Cc1ccccc1)C(=O)C1C(C(=O)O)C(C(=O)N(CCCC(OC(C)=O)C(C)Cc2ccccc2)Cc2ccccc2)C1C(=O)O)C(C)Cc1ccccc1` (stereo not drawn) [Example 84, (1α,2β,3β,4α)-1,3-Di [N-benzyl-N-{syn-(4-acetoxy-5-methyl) -6-phenylhexyl}aminocarbonyl]cyclobutane-2,4-dicarboxylic acid], the inhibition at 1 µM in assay [2] worked out at 93%.

On to `C[C@H](CCCc1ccccc1)CN(Cc1ccccc1)C(=O)[C@H]1[C@H](C(=O)O)[C@H](C(=O)N(Cc2ccccc2)C[C@H](C)CCCc2ccccc2)[C@H]1C(=O)O` [Example 85, (1α,2β,3β,4α)-1,3-Di[N-benzyl-N-((2R)-5-phenyl-2-methylpentyl)aminocarbonyl]cyclobutane-2,4-dicarboxylic acid], for which, in assay [2], the inhibition at 1 µM came to 58%.

Consider `C[C@H](C/C=C/c1ccccc1)CN(Cc1ccccc1)C(=O)[C@H]1[C@H](C(=O)O)[C@H](C(=O)N(Cc2ccccc2)C[C@H](C)C/C=C/c2ccccc2)[C@H]1C(=O)O` [Example 86, (1α,2β,3β,4α)-1,3-Di [N-benzyl-N-{(E)-(2R)-2-methyl-5-phenyl-4-pentenyl}aminocarbonyl]cyclobutane-2,4-dicarboxylic acid], for which, in assay [2], the inhibition at 1 µM was determined as 61%.

For the molecule `C[C@H](c1ccccc1)N(Cc1ccc(Oc2ccccc2)cc1)C(=O)[C@H]1[C@H](C(=O)O)[C@H](C(=O)N(Cc2ccc(Oc3ccccc3)cc2)[C@H](C)c2ccccc2)[C@H]1C(=O)O` [Example 90], the inhibition at 1 µM in assay [2] amounted to 66%.

For `O=C(O)[C@H]1[C@H](C(=O)N2CC=C(c3ccc(Oc4ccccc4)cc3)CC2)[C@H](C(=O)O)[C@H]1C(=O)N1CC=C(c2ccc(Oc3ccccc3)cc2)CC1` [Example 92, (1α,2α,3β,4β)-1,3-Di[4-(4-phenoxyphenyl)-1,2,3,6-tetrahydropyridin-1-ylcarbonyl]cyclobutane-2,4-dicarboxylic acid], the inhibition at 1 µM in assay [2] worked out at 45%.

The molecule `O=C(O)[C@H]1[C@H](C(=O)N(Cc2ccc(Oc3ccccc3)cc2)Cc2ccc3oc4ccccc4c3c2)[C@H](C(=O)O)[C@H]1C(=O)N(Cc1ccc(Oc2ccccc2)cc1)Cc1ccc2oc3ccccc3c2c1` [Example 95, (1α,2β,3β,4α)-1,3-Di[N-(dibenzofuran-2-ylmethyl)-N-(4-phenoxybenzyl)aminocarbonyl]cyclobutane-2,4-dicarboxylic acid] had an inhibition at 10 µM in assay [2] of 55%.

For `C[C@H](c1cccc2ccccc12)N(Cc1ccc(Oc2ccccc2)cc1)C(=O)[C@H]1[C@H](C(=O)O)[C@H](C(=O)N(Cc2ccc(Oc3ccccc3)cc2)[C@H](C)c2cccc3ccccc23)[C@H]1C(=O)O` [Example 96, (1α,2β,3β,4α)-1,3-Di[N-((2R)-2-(1-naphthyl)eth-2-yl) -N-(4-phenoxybenzyl)aminocarbonyl]cyclobutane-2,4-dicarboxylic acid], the inhibition at 1 µM in assay [2] was 71%.
